Source: patent US12410209B2, “Modified glucocorticoids” (Board of Regents, The University of Texas System, priority 2021, dated 2025)

Tests used:
Assay type in all cases: cell-based, human
[1] = tested on: HaCaT cells; experiment: MTT assay for cell viability; conditions: for sensitivity of cells to glucocorticoid treatment (cell proliferation): normal HaCaT cells compared to cancerous PM1 and Met4 cells
[2] = tested on: Met4 cells; experiment: MTT assay for cell viability; conditions: cancerous Met4 cells, range of concentrations, FIG. 2
[3] = tested on: IL-1β mRNA; experiment: qPCR analysis of LPS-induced IL-1β mRNA; conditions: HaCat cells, LPS-induced inflammation, FIG. 5
From the text: qPCR analysis is shown FIG. 5.

[4] = tested on: PM1 cells; experiment: MTT assay for cell viability; conditions: cancerous PM-1 cells, range of concentrations, FIG. 2

For `C[C@]12CCC(=O)C=C1CC[C@@H]1[C@@H]2[C@@H](F)C[C@@]2(C)[C@H]1CC[C@]2(O)C(=O)CO` [F-MOD, 11-deoxyfluorocortisol], the “sensitivity of cells to glucocorticoid treatment (cell proliferation)” value [1] was “more sensitive”, the “potency against cell proliferation compared with cortisol” value (shortened to “potency … compared with cortisol”) ([1]; normal HaCaT cells, range of concentrations, FIG. 2) was “at least as powerful as the original cortisol” and the “potency … compared with cortisol” value [2] was “at least as powerful as the original cortisol”. For the same compound, the “LPS-induced increase of inflammatory cytokine IL-1β” value [3] was “significantly suppressed” and the “potency … compared with cortisol” value [4] was “at least as powerful as the original cortisol if not stronger”.
With `C[C@]12CCC(=O)C=C1CC[C@@H]1[C@@H]2[C@@H](O)C[C@@]2(C)[C@H]1CC[C@]2(O)C(=O)CO` [cortisol, reference compound] the “sensitivity of cells to glucocorticoid treatment (cell proliferation)” value [1] was “more sensitive” and the “LPS-induced increase of inflammatory cytokine IL-1β” value [3] was “significantly suppressed”.
